Two molecules from patent US20180327461A1, “COMPOSITIONS AND METHODS FOR CONTROL OF VECTOR-BORNE DISEASE” (STC.UNM, priority 2015, published 2018) can be followed below.

One assay deals with P. agglomerans. Format: cell-based, Pantoea agglomerans.
Assay [1] relates to X. fastidiosa strain Temecula. Format: cell-based, Xylella fastidiosa.

For the molecule `CC[C@H](C)[C@H](NC(=O)CN)C(=O)NCC(=O)N[C@@H](C)C(=O)N[C@H](C(=O)N[C@@H](CC(C)C)C(=O)N[C@@H](CCCCN)C(=O)N[C@H](C(=O)N[C@@H](CC(C)C)C(=O)N[C@H](C(=O)N[C@H](C(=O)NCC(=O)N[C@@H](CC(C)C)C(=O)N1CCC[C@H]1C(=O)N[C@@H](C)C(=O)N[C@@H](CC(C)C)C(=O)N[C@H](C(=O)N[C@@H](CO)C(=O)N[C@@H](Cc1c[nH]c2ccccc12)C(=O)N[C@H](C(=O)N[C@@H](CCCCN)C(=O)N[C@@H](CCCNC(=N)N)C(=O)N[C@@H](CCCCN)C(=O)N[C@@H](CCCNC(=N)N)C(=O)N[C@@H](CCC(N)=O)C(=O)N[C@@H](CCC(N)=O)C(N)=O)[C@@H](C)CC)[C@@H](C)CC)[C@@H](C)O)[C@@H](C)O)C(C)C)C(C)C` [melittin, Melittin], in the assay on P. agglomerans, the “concentration killing P. agglomerans relative to concentration killing X. fastidiosa” value is given as “five times higher” and the “concentration that killed P. agglomerans” value worked out at 25 µM. Moreover, in assay [1], the “concentration that killed X. fastidiosa” value is 5 µM and the “toxicity to X. fastidiosa compared with P. agglomerans” value is on record as “more toxic to X. fastidiosa than P. agglomerans”.
Consider scorpine-like molecule [SLM], for which the “concentration that killed P. agglomerans” value in the assay on P. agglomerans is greater than 75 µM. Also, in assay [1], the “concentration that killed X. fastidiosa” value turned out to be 25 µM and the “toxicity to X. fastidiosa compared with P. agglomerans” value is given as “more toxic to X. fastidiosa than P. agglomerans”.
